Laboratory results as given in article PMC9814779, “A triple farnesoid X receptor and peroxisome proliferator-activated receptor α/δ activator reverses hepatic fibrosis in diet-induced NASH in mice” (Communications Chemistry, 2020).

System: FXR- and PPAR-regulated gene expression in HepG2 cells
Assay: FXR- and PPAR-regulated gene expression in HepG2 cells (qRT-PCR)
Format: cell-based, human
Conditions: 12 h
Experimental: HepG2 cells (DSMZ) were grown in DMEM high glucose, supplemented with 10% FCS, 1 mM SP, penicillin (100 U/mL), and streptomycin (100 μg/mL) at 37 °C and 5% CO2 and seeded in 6-well plates (2 × 10^6 per well). After 24 h, medium was changed to Minimal Essential Medium supplemented with 1% charcoal-stripped FCS, penicillin (100 U/mL), streptomycin (100 μg/mL), and 2 mM L-glutamine. After an additional 24 h, cells were incubated with test compound 41 (0.1 µM, 0.3 µM, 1 μM), OCA (1 μM), or elafibranor (1 µM) dissolved in the same medium with 0.1% DMSO or medium with 0.1% DMSO alone as untreated control for 12 h, harvested, washed with cold phosphate-buffered saline (PBS), and then directly used for RNA extraction. C2C12 cells (American Type Culture Collection, ATCC) were grown in DMEM high glucose, supplemented with 10% FCS, 1 mM SP, penicillin (100 U/mL), and streptomycin (100 μg/mL) at 37 °C and 5% CO2 and seeded in 6-well plates (1 × 10^6 per well). Upon reaching confluence, medium was changed to Eagle’s Minimal Essential Medium supplemented with 2% horse serum, penicillin (100 U/mL), streptomycin (100 μg/mL), and 2 mM L-glutamine. Cells were then differentiated in this medium for 5 days before incubation with test compounds 41 (1 μM) or L165,041 (1 μM) dissolved in the same medium with 0.1% DMSO or medium with 0.1% DMSO alone as untreated control for 8 h. Cells were harvested, washed with cold PBS, and then directly used for RNA extraction. Total RNA was extracted from HepG2 cells or C2C12 cells using the total RNA Mini Kit (R6834-02, Omega Bio-Tek, Inc., Norcross, GA, USA). Two micrograms of extracted RNA were then reverse-transcribed into cDNA with the High-Capacity cDNA Reverse Transcription Kit (4368814, Thermo Fischer Scientific, Inc.). FXR- and PPAR-regulated gene expression was then studied by quantitative real-time PCR (qRT-PCR) analysis with a StepOnePlus System (Life Technologies, Carlsbad, CA, USA) using PowerSYBRGreen (Life Technologies; 12.5 μL per well). Each sample was set up in duplicates and repeated in four independent experiments. Data were analyzed by the comparative ΔΔCT method with glyceraldehyde 3-phosphate dehydrogenase (GAPDH) as reference gene. The following primers were used for HepG2 cells (human genes): hGAPDH: 5 ′-ATATGATTCCACCCATGGCA (fw), 5′-GATGATGACCCTTTTGGCTC (rev); hSHP: 5′-GCTGTCTGGAGTCCTTCTGG (fw), 5′-CCAATGATAGGGCGAAAGAAGAG (rev); hCYP7A1: 5′-CACCTTGAGGACGGTTCCTA (fw), 5′-CGATCCAAAGGGCATGTAGT (rev); hBSEP: 5′-CATGGTGCAAGAAGTGCTGAGT (fw), 5′-AAGCGATGAGCAACTGAAATGAT (rev); hACOX: 5′-ACT CGC AGC CAG CGT TAT G (fw), 5′-AGG GTC AGC GAT GCC AAA C (rev); hPDK4: 5′-AGAGCCTGATGGATTTGGTG (fw), 5′-GCTTGGGTTTCCTGTCTGTG (rev); hCPT1: 5′-ACAGTCGGTGAGGCCTCTTAT (fw), 5′-TCTTGCTGCCTGAATGTGAGT (rev); hFGF21: 5′-ATGGATCGCTCCACTTTGACC (fw), 5′-GGGCTTCGGACTGGTAAACAT (rev). The following primers were used for C2C12 cells (murine genes)[36]: mGAPDH: 5′-CGACTTCAACAGCAACTCCCACTCTTCC (fw), 5′-TGGGTGGTCCAGGGTTTCTTACTCCTT (rev); mPCK: 5′-TGTTTACTGGGAAGGCATCG (fw), 5′-CAGAATCTCGAGTTGGGATGG (rev); mGLUT3: 5′-CGTCCTTGAAGATTCCTGTTGA (fw), 5′-GTC ACC CAA CTA CGT CCA G (rev); mLPL: 5′-GTCAGGTTCTCTCTTGTACAGG (fw), 5′-TCTAACTGCCACTTCAACCAC (rev).

[1] = HepG2, 1 µM, vs. vehicle-treated cells

Structure (SMILES)	mRNA expression of FXR-regulated genes (BSEP, SHP, CYP7A1) [1]	mRNA expression of PPAR-regulated genes (ACOX, PDK4, CPT1, FGF21) [1]	dose dependence of BSEP, PDK4 and CPT1 expression (HepG2, 0.1 µM, 0.3 µM, 1 μM)
CC[C@H]1[C@@H](O)[C@@H]2[C@H](CC[C@]3(C)[C@@H]([C@H](C)CCC(=O)O)CC[C@@H]23)[C@@]2(C)CC[C@@H](O)C[C@@H]12 [OCA, 6α-ethylchenodeoxycholic acid, reference compound]	upregulation of BSEP and small heterodimer partner (SHP) mRNA as well as downregulation of CYP7A1	slightly induced ACOX and FGF21 expression	
CC(C)(C)c1ccc(C(=O)Nc2cccc(CCC(=O)O)c2)c(NC(=O)c2ccc(-c3ccco3)cc2)c1 [compound 41, 3-(3-[4-{tert-Butyl}-2-{4-(2-furyl)}benzamido]phenyl)propanoic acid]	upregulation of BSEP and small heterodimer partner (SHP) mRNA as well as downregulation of CYP7A1		dose-dependent effects
